Measured values taken from patent publication US12077483B2, “Modified amine lipids” (Intellia Therapeutics, Inc., priority 2018, dated 2024).

Experiments:
mouse TTR gene [1] = assay: In vivo editing in mouse liver, LNP with Cas9 mRNA and sgRNA G282, NGS; details: for Mean % Indel: Table 5
Description: (§1) LNPs were prepared using various amine lipids in a 4-component lipid system consisting of an ionizable lipid (e.g. an amine lipid), DSPC, cholesterol and PEG-2k-DMG. In assays for percent liver editing in mice, Cas9 mRNA and chemically modified sgRNA targeting a mouse sequence were formulated in LNPs, at either a 1:1 w/w ratio or a 1:2 w/w ratio.
(§2) The lipid components were dissolved in 100% ethanol with the lipid component molar ratios described below. The chemically modified sgRNA and Cas9 mRNA were combined and dissolved in 25 mM citrate, 100 mM NaCl, pH 5.0, resulting in a concentration of total RNA cargo of approximately 0.45 mg/mL. The LNPs were formulated with an N/P ratio of about 6, with the ratio of chemically modified sgRNA: Cas9 mRNA at either a 1:1 or 1:2 w/w ratio as described below.
(§3) CD-1 female mice, ranging from 6-10 weeks of age were used in each study. Animals were weighed and grouped according to body weight for preparing dosing solutions based on group average weight. LNPs were dosed via the lateral tail vein in a volume of 0.2 mL per animal (approximately 10 mL per kilogram body weight). The animals were periodically observed for adverse effects for at least 24 hours post dose.
(§4) For studies measuring in vivo editing in liver, CD-1 female mice were dosed at 0.1 mpk unless otherwise noted. Animals were euthanized at 6 or 7 days by exsanguinationvia cardiac puncture under isoflourane anesthesia. Liver tissue was collected from each animal for DNA extraction and analysis. Blood was collected into serum separator tubes or into tubes containing buffered sodium citrate for plasma as described herein. Cohorts of mice were measured for editing by Next-Generation Sequencing (NGS).
(§5) In brief, to quantitatively determine the efficiency of editing at the target location in the genome, genomic DNA was isolated and deep sequencing was utilized to identify the presence of insertions and deletions introduced by gene editing.
(§6) PCR primers were designed around the target site (e.g., B2M), and the genomic area of interest was amplified. Additional PCR was performed according to the manufacturer's protocols (Illumina) to add the necessary chemistry for sequencing. The amplicons were sequenced on an Illumina MiSeq instrument. The reads were aligned to the relevant reference genome (e.g., GRCm38) after eliminating those having low quality scores. The resulting files containing the reads were mapped to the reference genome (BAM files), where reads that overlapped the target region of interest were selected and the number of wild type reads versus the number of reads which contain an insertion, substitution, or deletion was calculated.
(§7) The editing percentage (e.g., the “editing efficiency” or “percent editing”) is defined as the total number of sequence reads with insertions or deletions over the total number of sequence reads, including wild type.
(§8) We assessed in vivo editing efficiency for materials delivered with formulations including various amine lipid compounds. Editing was measured using either G282 (SEQ ID No: 1) which targets the mouse TTR gene or G650 (SEQ ID No. 2) which targets the mouse B2M gene. Lipids described above were assessed for efficacy through in vivo editing experiments. LNPs were formulated at a 1:1 w/w ratio of sgRNA to Cas9 mRNA, and at an N/P ratio of about 6. Molar concentrations of lipids in the lipid component of the LNPs are expressed as mol % amine lipid/DSPC/cholesterol/PEG-2k-DMG, e.g. 50/10/38.5/1.5. The final LNPs were characterized to determine the encapsulation efficiency, polydispersity index, and average particle size according to the analytical methods provided above. Analysis of average particle size, polydispersity (PDI), total RNA content and encapsulation efficiency of RNA are shown in Table 2.
To assess whether the editing was dose responsive, experiments were performed in vivo at various LNP dose levels. […]

mouse B2M gene = assay: In vivo editing in mouse liver, LNP with Cas9 mRNA and sgRNA G650, NGS; details: Table 3; guide G650; CD-1 female mice, 0.1 mpk i.v., liver at 6 or 7 days; Exp. 2-7
Description: as §1, §2, §3, §4, §5, §6, §7, §8

rat TTR = assay: In vivo editing in rat liver, LNP with Cas9 mRNA and sgRNA G534, NGS; details: Table 11, Sprague Dawley female rats i.v., liver 6-7 days post dose
Description: as §5, §6, §7
To assess lipid efficacy, dose response experiments were performed in vivo. Cas9 mRNA of Example 115 was formulated as LNPs with a gRNA targeting TTR (G00534; SEQ ID NO: 5). These LNPs were formulated, prepared and analyzed as described in Example 115 using a 1:2 w/w ratio of a sgRNA and Cas9 mRNA. Composition analysis for these LNPs are described in Table 10.
(§9) For efficacy, Sprague Dawley female rats were dosed i.v. at 0.1 mpk or 0.03 mpk. 6-7 days post dose, rats were euthanized by CO2 asphyxiation. Blood was collected into serum separator tubes. Liver biopsy processed for gDNA and assessed for editing by NGS methods described in Example 115. Results are shown in Table 11 and FIGS. 12A and 12B. For tolerability, Sprague Dawley female rats were dosed at 6 mpk and 24 hours post dose the animals were euthanized by CO2 asphyxiation. Blood was collected into serum separator tubes and sent to an external CRO for quantitation of liver enzymes via a liver enzyme panel.

[2] = Tolerability in rats: liver enzyme panel 24 hours post dose; assay type: in vivo, rat; details: Sprague Dawley female rats, 6 mg/kg, serum
Description: as §9

mouse TTR gene [3] = assay: In vivo editing in mouse liver, LNP with Cas9 mRNA and sgRNA G502, NGS; details: G502, sgRNA:Cas9 mRNA 1:2 w/w, Example 119
Description: as §3, §4, §5
as §6, with “Additional PCR was performed according to the manufacturer's protocols (Illumina) to add the necessary chemistry for sequencing. The amplicons were sequenced on an Illumina MiSeq instrument.” left out
as §7
We assessed in vivo editing efficiency for materials delivered with formulations with variable tail lengths through in vivo editing experiments. […]

[4] = Table 3, guide G282, CD-1 female mice, 0.1 mpk i.v., liver at 6 or 7 days, Exp. 1, 8, 9, 10
[5] = Table 7, G00282, CD-1 female mice i.v., dose 0.1 mpk, liver
[6] = Table 7, G00282, CD-1 female mice i.v., dose 0.3 mpk, liver
[7] = G00282, CD-1 female mice i.v., dose 0.1 mpk, liver
[8] = G00282, CD-1 female mice i.v., dose 0.3 mpk, liver

## CCCCC/C=C\C/C=C\CCCCCCCC(=O)OCC(COC(=O)CCCCCCC/C=C\C/C=C\CCCCC)OC(=O)CCC(CCCCCCCCCCCC)OC(=O)OCCCN(C)C (stereo not drawn) [Compound 1, 2-((4-(((3-(dimethylamino)propoxy)carbonyl)oxy)hexadecanoyl)oxy)propane-1,3-diyl (9Z,9′Z,12Z,12′Z)-bis(octadeca-9,12-dienoate)]
Mouse TTR gene [1]; [4]
  Editing Mean % Indel: 13.1%

## CCCCC/C=C\C/C=C\CCCCCCCC(=O)OCC(COC(=O)CCCCCCC/C=C\C/C=C\CCCCC)OC(=O)CCC(CCCCCCCCCCCC)OC(=O)OCCCN1CCCC1 (stereo not drawn) [Compound 5, 2-((4-(((3-(pyrrolidin-1-yl)propoxy)carbonyl)oxy)hexadecanoyl)oxy)propane-1,3-diyl (9Z,9′Z,12Z,12′Z)-bis(octadeca-9,12-dienoate)]
Mouse TTR gene [1]; [5]
  Editing Mean % Indel: 26.1%
Mouse TTR gene [1]; [6]
  Editing Mean % Indel: 52.5%
Mouse TTR gene [1]; mouse liver, Examples 116 and 118
  efficacy for in vivo editing (in words): efficacious
Mouse B2M gene
  Editing Mean % Indel: 17.5%

## CCCCC/C=C\C/C=C\CCCCCCCC(=O)OCC(COC(=O)CCCCCCC/C=C\C/C=C\CCCCC)OC(=O)CCC(CCCCCCCCCCCC)OC(=O)NCCN(C)CC (stereo not drawn) [Compound 7, 2-((4-(((2-(ethyl(methyl)amino)ethyl)carbamoyl)oxy)hexadecanoyl)oxy)propane-1,3-diyl (9Z,9′Z,12Z,12′Z)-bis(octadeca-9,12-dienoate)]
Mouse TTR gene [1]; [7]
  Mean % Indel: 49.1%
Mouse TTR gene [1]; [8]
  Mean % Indel: 69.4%
Mouse B2M gene
  Editing Mean % Indel: 22.6%

## CCCCC/C=C\C/C=C\CCCCCCCC(=O)OCC(COC(=O)CCCCCCC/C=C\C/C=C\CCCCC)OC(=O)CCC(CCCCCCCCCCCC)OC(=O)NCC1CCCN1C (stereo not drawn) [Compound 9, 2-((4-((((1-methylpyrrolidin-2-yl)methyl)carbamoyl)oxy)hexadecanoyl)oxy) propane-1,3-diyl (9Z,9′Z,12Z,12′Z)-bis(octadeca-9,12-dienoate)]
Mouse TTR gene [1]; [4]
  Editing Mean % Indel: 44.1%
Mouse TTR gene [1]; [7]
  Mean % Indel: 50.6%
Mouse TTR gene [1]; [8]
  Mean % Indel: 64.5%
Mouse B2M gene
  Editing Mean % Indel: 20.3%

## CCCCC/C=C\C/C=C\CCCCCCCC(=O)OCC(COC(=O)CCCCCCC/C=C\C/C=C\CCCCC)OC(=O)CCC(CCCCCCCC)OC(=O)NCCN(C)CC (stereo not drawn) [Compound 34, 2-((4-(((2-(ethyl(methyl)amino)ethyl)carbamoyl)oxy)dodecanoyl)oxy)propane-1,3-diyl (9Z,9′Z,12Z,12′Z)-bis(octadeca-9,12-dienoate)]
Mouse TTR gene [1]; [5]
  Editing Mean % Indel: 54.9%
Mouse TTR gene [1]; [6]
  Editing Mean % Indel: 68.3%
Mouse B2M gene
  Editing Mean % Indel: 44.8%
Rat TTR; dose 0.03 mpk
  Editing % Editing: 21.22%
Rat TTR; dose 0.1 mpk
  Editing % Editing: 53.9%
[2]
  ALP (U/L): 542 U/L
  ALT (U/L): 179.6 U/L
  AST (U/L): 349.6 U/L
  Creatine kinase (U/L): 184.8 U/L
  GGT (U/L): 3.4 U/L
  Total Bilirubin: 0.2 mg/dL

## CCCCC/C=C\C/C=C\CCCCCCCC(=O)OCC(COC(=O)CCCCCCC/C=C\C/C=C\CCCCC)OC(=O)CCC(CCCCCCCC)OC(=O)NCC1CCCN1C (stereo not drawn) [Compound 35, 2-((4-((((1-methylpyrrolidin-2-yl)methyl)carbamoyl)oxy)dodecanoyl)oxy) propane-1,3-diyl (9Z,9′Z,12Z,12′Z)-bis(octadeca-9,12-dienoate)]
Mouse B2M gene
  Editing Mean % Indel: 35.5%

## CCCCC/C=C\C/C=C\CCCCCCCC(=O)OCC(COC(=O)CCCCCCC/C=C\C/C=C\CCCCC)OC(=O)CCC(CCCCCCCC)OC(=O)OCCCN1CCCC1 (stereo not drawn) [Compound 36, 2-((4-(((3-(pyrrolidin-1-yl)propoxy)carbonyl)oxy)dodecanoyl)oxy)propane-1,3-diyl (9Z,9′Z,12Z,12′Z)-bis(octadeca-9,12-dienoate)]
Mouse B2M gene
  Editing Mean % Indel: 30.0%

## CCCCC/C=C\C/C=C\CCCCCCCC(=O)OCC(COC(=O)CCCCCCC/C=C\C/C=C\CCCCC)OC(=O)CCC(CCCCCCCCCC)OC(=O)NCCN(C)CC (stereo not drawn) [Compound 39, 2-((4-(((2-(ethyl(methyl)amino)ethyl)carbamoyl)oxy)tetradecanoyl)oxy)propane-1,3-diyl (9Z,9′Z,12Z,12′Z)-bis(octadeca-9,12-dienoate)]
Mouse TTR gene [1]; [4]
  Editing Mean % Indel: 36.5%

## CCCCC/C=C\C/C=C\CCCCCCCC(=O)OCC(COC(=O)CCCCCCC/C=C\C/C=C\CCCCC)OC(=O)CCC(CCCCCC)OC(=O)NCCN(C)CC (stereo not drawn) [Compound 40, 2-((4-(((2-(ethyl(methyl)amino)ethyl)carbamoyl)oxy)decanoyl)oxy)propane-1,3-diyl (9Z,9′Z,12Z,12′Z)-bis(octadeca-9,12-dienoate)]
Mouse TTR gene [1]; [4]
  Editing Mean % Indel: 44.7%

## CCCCC/C=C\C/C=C\CCCCCCCC(=O)OCC(COC(=O)CCCCCCC/C=C\C/C=C\CCCCC)OC(=O)CCC(CCCCCC)OC(=O)OCCCN1CCCC1 (stereo not drawn) [Compound 45, 2-((4-(((3-(pyrrolidin-1-yl)propoxy)carbonyl)oxy)decanoyl)oxy)propane-1,3-diyl (9Z,9′Z,12Z,12′Z)-bis(octadeca-9,12-dienoate)]
Rat TTR; dose 0.03 mpk
  Editing % Editing: 10.76%
Rat TTR; dose 0.1 mpk
  Editing % Editing: 48.16%
[2]
  ALP (U/L): 439.8 U/L
  ALT (U/L): 163.2 U/L
  AST (U/L): 681 U/L
  Creatine kinase (U/L): 1103 U/L
  GGT (U/L): 2.4 U/L
  Total Bilirubin: 0.3 mg/dL

## CCCCC/C=C\C/C=C\CCCCCCCC(=O)OCC(COC(=O)CCC(OCCCCCCCC)OCCCCCCCC)COC(=O)OCCCN(CC)CC (stereo not drawn) [Compound 49, 3-((4,4-bis(octyloxy)butanoyl)oxy)-2-((((3-(diethylamino)propoxy)carbonyl)oxy)methyl)propyl (9Z,12Z)-octadeca-9,12-dienoate, reference compound]
Mouse TTR gene [1]; [7]
  Mean % Indel: 26.8%
Mouse TTR gene [1]; [8]
  Mean % Indel: 60.6%
Mouse TTR gene [1]; [5]
  Editing Mean % Indel: 50.0%
Mouse TTR gene [1]; [6]
  Editing Mean % Indel: 67.7%
Rat TTR; dose 0.03 mpk
  Editing % Editing: 4.76%
Rat TTR; dose 0.1 mpk
  Editing % Editing: 25.62%
[2]
  ALP (U/L): 784.3 U/L
  ALT (U/L): 408.5 U/L
  AST (U/L): 534.8 U/L
  Creatine kinase (U/L): 157.5 U/L
  GGT (U/L): 2 U/L
  Total Bilirubin: 0.6 mg/dL

## CCCCC/C=C\C/C=C\CCCCCCCC(=O)OCC(COC(=O)CCCCCCC/C=C\C/C=C\CCCCC)OC(=O)CCC(CCCCCCCC)OC(=O)NCCN1CCCC1 (stereo not drawn) [Compound 51, 2-((4-(((2-(pyrrolidin-1-yl)ethyl)carbamoyl)oxy)dodecanoyl)oxy)propane-1,3-diyl (9Z,9′Z,12Z,12′Z)-bis(octadeca-9,12-dienoate)]
Mouse TTR gene [3]
  efficacy for in vivo editing (in words): efficacious
